{"source": "patent US8895579B2", "about": "“Heterotricyclic AMPA receptor antagonists for treatment of epilepsy, pain, and other neurological disorders and diseases” (Northwestern University, priority 2010, dated 2014)", "key": {"[1]": {"test_system": "AMPA receptor-mediated EPSCs in primary hippocampal neurons", "assay": "AMPA receptor EPSC charge transfer during spontaneous synaptic bursts, whole-cell voltage clamp, cultured hippocampal neurons", "assay_type": "cell-based", "details": "30 μM", "description": "Experiments involving primary hippocampal neurons were carried out as described previously (Vivithanaporn et al., 2007). Dissociated neurons were cultured from E18 prenatal hippocampi and were used for analysis from between 17 and 28 days in vitro. The extracellular solution was the same as used for recombinant receptor analysis, while the internal solution for voltage clamp recordings contained (in mM) 95 CsF, 25 CsCl, 10 Cs-HEPES, 10 EGTA, 2 NaCl, 2 Mg-ATP, 10 QX-314, 5 TEA. and 5 4-AP (pH 7.3) and the internal solution for current clamp recordings contained (in mM) 120 KMeSO4, 5 KCl, 5 NaCl, 1 MgCl2, 11 Na-HEPES, 10 phosphocreatine, 4 Na-ATP, and 0.3 Na-GTP (pH 7.0). Borosilicate patch electrodes were pulled and fire polished to 3-5 MΩ resistance. Both whole cell current clamp and voltage clamp recordings were performed using an Axopatch 200B amplifier (MDS, Sunnyvale, Calif.) and filtered at 20 kHz. Gigaohm seals were established in voltage clamp mode and, after membrane rupture, the recordings were carried out either in voltage clamp (clamped at Vm=−70 mV) with a […] series resistance, which was compensated to ˜60%, or in current clamp mode ([…]) with the bridge balance was corrected and pipette resistance neutralized. In vitro status epilepticus (SE) was induced as described previously (Deshpande et al., 2007; Pal et al., 1999) and action potentials were recorded in current clamp mode. Briefly for in vitro SE, magnesium-containing external solution was exchanged for external solution without magnesium and supplemented with 2 μM glycine. This solution exchange produced a period of rapid depolarization and increased AP firing, followed by a period of channel inactivation and reduced AP firing. After channel inactivation, neurons characteristically would hyperpolarize to hold at a membrane voltage (Vm) which was depolarized relative to control Vm, with an increase in AP firing frequency. […] External solutions were bath-applied at a flow rate of 1.5-2 ml/minute. After recording a basal control period, IKM compounds were applied for five minutes (10 minutes for in vitro SE experiments) and changes in excitatory post-synaptic current (EPSC) charge transfer or action potential (AP) frequency were analyzed during the last two minutes of IKM application.\nWe first measured the actions of the IKM compounds on the charge transfer during spontaneously occurring, polysynaptic bursts of AMPA receptor excitatory post-synaptic currents (EPSCs) in cultured hippocampal neurons (recorded in the presence of bicuculline methiodide and picrotoxin to inhibit GABAA receptors and D-APV to inhibit NMDA receptors). […] IKM-159 had the greatest inhibitory effect at a fixed concentration of 30 μM, producing a reduction in charge transfer of 65±5% (n=6, p<0.01). […] Despite the polar chemical nature of the compounds, recoveries to basal EPSC charge transfers were minimal."}, "GluA4": {"molecular_target": "T1, GluA4 (Rattus norvegicus, UniProt P19493)", "T1 construct": "expressed in transfected cells; host or cells: HEK293-T/17 (CRL-11268)", "T1 sequence (P19493 21-902 isoform P19493-2 limits assumed)": "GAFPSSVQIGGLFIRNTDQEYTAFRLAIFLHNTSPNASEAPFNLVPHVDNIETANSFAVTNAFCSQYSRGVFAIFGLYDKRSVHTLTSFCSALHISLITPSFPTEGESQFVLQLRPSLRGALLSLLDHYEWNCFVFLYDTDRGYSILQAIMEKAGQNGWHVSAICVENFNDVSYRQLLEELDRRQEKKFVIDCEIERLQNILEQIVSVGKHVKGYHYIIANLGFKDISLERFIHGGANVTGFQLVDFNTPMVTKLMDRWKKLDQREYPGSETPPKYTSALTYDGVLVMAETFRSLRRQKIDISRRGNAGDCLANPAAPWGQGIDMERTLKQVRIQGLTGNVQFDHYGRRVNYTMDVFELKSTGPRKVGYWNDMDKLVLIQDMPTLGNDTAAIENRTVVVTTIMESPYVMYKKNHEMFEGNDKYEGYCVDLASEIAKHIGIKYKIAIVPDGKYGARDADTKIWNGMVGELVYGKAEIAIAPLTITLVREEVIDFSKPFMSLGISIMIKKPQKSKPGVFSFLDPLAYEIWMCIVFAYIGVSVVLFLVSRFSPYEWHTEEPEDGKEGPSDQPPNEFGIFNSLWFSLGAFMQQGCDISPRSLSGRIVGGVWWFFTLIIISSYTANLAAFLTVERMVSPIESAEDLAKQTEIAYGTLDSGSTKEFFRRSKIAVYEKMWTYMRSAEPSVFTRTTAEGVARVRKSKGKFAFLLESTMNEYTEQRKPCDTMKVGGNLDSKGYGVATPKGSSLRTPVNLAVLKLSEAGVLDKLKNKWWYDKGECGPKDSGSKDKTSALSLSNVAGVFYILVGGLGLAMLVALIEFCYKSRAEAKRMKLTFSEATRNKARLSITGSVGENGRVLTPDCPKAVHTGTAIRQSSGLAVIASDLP", "assay": "[3H]-AMPA radioligand binding, membranes of HEK293-T/17 cells expressing GluA4", "details": "100 μM", "description": "Radioligand binding. HEK293-T/17 cells were transfected with 5 μg of iGluR cDNA in 100 mm^2 culture dishes. Two days post transfection, the plates were washed twice with ice-cold Dulbecco's phosphate-buffered saline (DPBS) and then incubated with 50 mM Tris (pH 7.4) and 1 mM EDTA for three minutes on ice. Cells were collected and centrifuged for five minutes at 800 g at room temperature. The cell pellet was homogenized in 50 mM Tris (pH 7.4) containing 320 mM sucrose (homogenization buffer, HB) on ice using a glass dounce homogenizer and centrifuged at 4° C. for 10 minutes at 800 g. The supernatant, containing the membrane fragments, was saved and the remaining pellet containing nuclei and unbroken cells was resuspended in HB. This homogenization process was repeated two more times and after collection of the final resulting supernatant, the remaining pellet was discarded. The collected supernatants were centrifuged at 4° C. for 20 minutes at 20000 g and the resulting supernatant was discarded leaving a membrane-containing pellet. The pellets were resuspended in freshly prepared binding buffer containing (in mM) 50 Tris (pH 7.2), 2.5 CaCl2, 10% glycerol and 100 KSCN (for AMPA receptors) or exclusively 50 Tris (pH 7.4) (for kainate receptors). Membrane protein (50-100 μg) was combined with radiolabeled ligand (10 nM [^3H]-KA or 20 nM [^3H]-AMPA for kainate receptor and AMPA receptor binding, respectively), alone or with 100 μM of IKM-159, and then incubated for 1 h at 4° C. Non-specific binding was determined as the amount of radioligand bound in the presence of a saturating concentration of glutamate (1 mM). Total binding was determined as the amount of radioligand bound in the absence of any competing ligands minus the non-specific binding. […] Data were presented as a percentage of the total binding. All experimental conditions were performed in duplicate in each assay and then averaged for each trial."}, "GluK1-2b": {"molecular_target": "T2, GluK1-2b (Rattus norvegicus, UniProt P22756)", "T2 construct": "myc; expressed in transfected cells; host or cells: HEK293-T/17 (CRL-11268)", "T2 sequence (P22756 31-905 isoform P22756-2 limits assumed)": "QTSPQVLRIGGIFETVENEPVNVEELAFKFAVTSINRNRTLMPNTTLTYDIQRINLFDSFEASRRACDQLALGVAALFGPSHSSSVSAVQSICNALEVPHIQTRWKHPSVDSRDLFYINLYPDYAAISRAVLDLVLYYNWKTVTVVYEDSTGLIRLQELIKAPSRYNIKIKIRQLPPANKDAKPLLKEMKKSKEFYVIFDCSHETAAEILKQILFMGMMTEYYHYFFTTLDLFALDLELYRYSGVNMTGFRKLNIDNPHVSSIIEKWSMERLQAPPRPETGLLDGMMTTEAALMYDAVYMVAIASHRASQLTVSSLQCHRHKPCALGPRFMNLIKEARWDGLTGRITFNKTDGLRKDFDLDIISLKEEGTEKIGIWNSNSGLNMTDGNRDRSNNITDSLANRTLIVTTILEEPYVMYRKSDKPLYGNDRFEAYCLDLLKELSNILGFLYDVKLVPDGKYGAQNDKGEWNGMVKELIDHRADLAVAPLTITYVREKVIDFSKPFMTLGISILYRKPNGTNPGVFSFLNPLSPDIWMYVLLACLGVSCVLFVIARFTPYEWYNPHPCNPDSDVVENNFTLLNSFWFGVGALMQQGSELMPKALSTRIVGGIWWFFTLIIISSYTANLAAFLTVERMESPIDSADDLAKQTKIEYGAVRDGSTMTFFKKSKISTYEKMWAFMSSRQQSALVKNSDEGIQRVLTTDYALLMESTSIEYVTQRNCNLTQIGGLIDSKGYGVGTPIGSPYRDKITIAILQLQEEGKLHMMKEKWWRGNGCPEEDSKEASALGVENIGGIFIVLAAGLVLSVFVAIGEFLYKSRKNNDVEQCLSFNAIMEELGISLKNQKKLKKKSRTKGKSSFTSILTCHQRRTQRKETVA", "assay": "[3H]-KA radioligand binding, membranes of HEK293-T/17 cells expressing GluK1-2b", "details": "10 nM [3H]-KA, 1 h at 4° C., read-out: [3H]KA bound as percent of total (specific) binding in absence of competing ligand", "description": "Radioligand binding. HEK293-T/17 cells were transfected with 5 μg of iGluR cDNA in 100 mm^2 culture dishes. Two days post transfection, the plates were washed twice with ice-cold Dulbecco's phosphate-buffered saline (DPBS) and then incubated with 50 mM Tris (pH 7.4) and 1 mM EDTA for three minutes on ice. Cells were collected and centrifuged for five minutes at 800 g at room temperature. The cell pellet was homogenized in 50 mM Tris (pH 7.4) containing 320 mM sucrose (homogenization buffer, HB) on ice using a glass dounce homogenizer and centrifuged at 4° C. for 10 minutes at 800 g. The supernatant, containing the membrane fragments, was saved and the remaining pellet containing nuclei and unbroken cells was resuspended in HB. This homogenization process was repeated two more times and after collection of the final resulting supernatant, the remaining pellet was discarded. The collected supernatants were centrifuged at 4° C. for 20 minutes at 20000 g and the resulting supernatant was discarded leaving a membrane-containing pellet. […] Non-specific binding was determined as the amount of radioligand bound in the presence of a saturating concentration of glutamate (1 mM). Total binding was determined as the amount of radioligand bound in the absence of any competing ligands minus the non-specific binding. […]"}}, "data": [{"smiles": "O=C(O)C[C@@]12O[C@H]3C=CCN[C@H]3C1CN[C@H]2C(=O)O", "note": "(stereo partly drawn) [IKM-159]", "values": [{"measurement": "reduction from control charge transfer", "setting": "[1]", "result": "65±5", "unit": "%"}, {"measurement": "charge transfer during bursts of AMPA receptor-mediated synaptic events as a percent of the charge transfer during the control period", "setting": "[1]; voltage clamped at −70 mV", "result": "35±5", "unit": "%"}, {"measurement": "[3H]AMPA bound as percent of total (specific) binding in absence of competing ligand", "setting": "GluA4; 20 nM [3H]-AMPA, 1 h at 4° C.", "result": "90±6", "unit": "%"}, {"measurement": "bound radioligand ([3H]-AMPA)", "setting": "GluA4; 1 h pre-incubation prior to addition of the radioligand", "result": 100, "unit": "%"}, {"measurement": "bound radioligand ([3H]-AMPA)", "setting": "GluA4; 2 h incubation with [3H]-AMPA", "result": 113, "unit": "%"}, {"measurement": "activity at 100 µM", "setting": "GluK1-2b", "result": "105 ± 5", "unit": "%"}]}]}
